Assay results published in paper PMC8357188 (Nature biomedical engineering, 2020).

Test system: porcine jejunum tissue
Test: GI-TRIS intestinal transport experiments
Format: in vitro ADME, pig

## carbetocin acetate
  increase in intestinal transport when formulated with polyethyleneimine: limited increase
